Counter-ions that a name gives are not always drawn. Like-named read-outs stand apart in the source and are kept apart here. Each block holds one compound with its values, some of them ahead of it.
Key:
WT mice [1] = test: Marble burying assay; format: in vivo, mouse; settings: 0.3 mg/kg ip
α6β2* nAChRs = α6β2* nAChRs (Mus musculus, UniProt Q9ERK7+Q9R0W9); test: biochemical; format: biochemical; settings: 10 μM
Experimental: Regions of interest were dissected from fresh mouse brains and homogenized in ice-cold isotonic sucrose (0.32 M), buffered with HEPES (5 mM, pH 7.5). The suspension was centrifuged at 12,000 × g for 20 min. The pellet was re-suspended in the appropriate uptake buffer ([Grady et al., 2001]; [Salminen et al., 2004]; [Marks et al., 2006]) and used immediately.
Superfusion was carried out at 22°C using a buffer containing: NaCl, 128 mM; KCl, 2.4 mM; CaCl2, 3.2 mM; MgSO4, 1.2 mM; KH2PO4, 1.2 mM; HEPES, 25 mM; glucose, 10 mM; ascorbic acid, 1 mM; pargyline, 0.01 mM; 0.1% BSA; nomifensine, 1 μM (to prevent the re-uptake of dopamine); atropine, 1 μM (to prevent muscarinic receptor activation); pH 7.5. Superfusion proceeded at 0.7 mL/min for 10 min before stimulation with agonist for 20 s. Selected aliquots were perfused with α-CtxMII (50 nM) for 3 min immediately before stimulation. This concentration of α-CtxMII was sufficient to inhibit α6β2^∗-nAChRs in the mouse striatum ([Salminen et al., 2004], [2007]). Fractions (∼0.1 mL) were collected into 96-well plates at 10 s intervals for 4 min (starting ∼1 min before stimulation). After adding 0.15 mL of Optiphase SuperMix scintillation cocktail, radioactivity was measured using a 1450 MicroBeta TriLux counter (Perkin Elmer Life Sciences).

WT and α6L9′S mice = test: Locomotor assay in a novel environment; format: in vivo, mouse; settings: for Ambulatory activity in a novel environment: 0.5 μmol/kg ip (nicotine 0.08 mg/kg, TC299423 0.09 mg/kg)
Experimental: Mice were habituated to the experimental room for 2 h prior to the experiment. Horizontal locomotor activity was recorded using an infrared photobeam activity cage system (San Diego Instruments; San Diego, CA, United States). After habituating to the experimental room, mice were placed singly in a novel cage. Ambulations were recorded when two contiguous photobeams were broken in succession, preventing activity from being recorded by most sedentary animals. Ambulation events were measured for 45 min with four 15 s intervals per min. Mice were given a total of two intraperitoneal (ip) injections. First, mice were pre-injected with saline or 1 mg/kg mecamylamine before being placed in the activity cages.

WT mice [2] = test: Hot plate assay; format: in vivo, mouse; settings: 0.3 mg/kg ip each, 55°C hot plate, p < 0.05
Experimental: Mice were again habituated to the experimental room for ≥2 h prior to testing. […] This apparatus is a heated metal plate, maintained at 55°C, enclosed by a clear acrylic plastic cylinder (∼10 cm in diameter), within which the mouse is free to move. […] If the mouse urinates during the assay, it is immediately removed from the hot plate. The time that the mouse remains on the hot plate prior to showing signs of discomfort is recorded. Doses were administered using a Latin-square crossover design. A day without testing occurred between each test.

α4β2* nAChRs = α4β2* nAChRs (Mus musculus, UniProt O70174+Q9ERK7); test: biochemical; format: biochemical; settings: 10 μM
α4β2* nAChRs, sequence (O70174 31-629): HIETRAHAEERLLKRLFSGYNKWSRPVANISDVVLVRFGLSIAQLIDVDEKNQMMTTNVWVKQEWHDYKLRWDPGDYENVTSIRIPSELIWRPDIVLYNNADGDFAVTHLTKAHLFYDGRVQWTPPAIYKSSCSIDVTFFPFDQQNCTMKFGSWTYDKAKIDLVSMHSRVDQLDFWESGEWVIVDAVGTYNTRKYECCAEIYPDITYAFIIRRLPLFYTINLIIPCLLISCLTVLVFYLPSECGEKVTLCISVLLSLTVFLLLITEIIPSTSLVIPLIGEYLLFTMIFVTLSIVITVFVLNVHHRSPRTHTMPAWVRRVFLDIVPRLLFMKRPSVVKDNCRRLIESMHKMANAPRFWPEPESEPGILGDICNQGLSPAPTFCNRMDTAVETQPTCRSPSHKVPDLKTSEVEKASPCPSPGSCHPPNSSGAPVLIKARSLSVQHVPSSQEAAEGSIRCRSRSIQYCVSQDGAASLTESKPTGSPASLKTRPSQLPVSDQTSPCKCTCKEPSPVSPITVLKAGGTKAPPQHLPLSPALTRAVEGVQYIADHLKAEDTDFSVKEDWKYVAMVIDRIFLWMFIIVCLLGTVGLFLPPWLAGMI
α4β2* nAChRs, sequence (Q9ERK7 26-501): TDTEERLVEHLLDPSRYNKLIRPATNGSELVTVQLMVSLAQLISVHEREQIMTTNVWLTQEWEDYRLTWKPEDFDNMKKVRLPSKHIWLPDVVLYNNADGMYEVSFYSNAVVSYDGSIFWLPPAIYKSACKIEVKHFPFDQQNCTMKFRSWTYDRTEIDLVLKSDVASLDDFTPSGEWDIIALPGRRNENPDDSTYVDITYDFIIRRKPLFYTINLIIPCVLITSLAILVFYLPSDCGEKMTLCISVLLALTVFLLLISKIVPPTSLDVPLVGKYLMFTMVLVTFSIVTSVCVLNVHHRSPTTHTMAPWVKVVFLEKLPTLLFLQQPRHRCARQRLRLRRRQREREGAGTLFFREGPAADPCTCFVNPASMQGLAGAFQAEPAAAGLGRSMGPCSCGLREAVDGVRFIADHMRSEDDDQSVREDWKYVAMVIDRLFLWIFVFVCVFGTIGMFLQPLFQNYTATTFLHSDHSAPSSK
Experimental: Regions of interest were dissected from fresh mouse brains and homogenized in ice-cold isotonic sucrose (0.32 M), buffered with HEPES (5 mM, pH 7.5). The suspension was centrifuged at 12,000 × g for 20 min.
Superfusion proceeded at 0.7 mL/min for 10 min before stimulation with agonist for 20 s. Selected aliquots were perfused with α-CtxMII (50 nM) for 3 min immediately before stimulation. […] Fractions (∼0.1 mL) were collected into 96-well plates at 10 s intervals for 4 min (starting ∼1 min before stimulation).

[3] = In vitro metabolism in microsomes; format: in vitro ADME; settings: rat microsomes
[4] = In vitro metabolism in microsomes; format: in vitro ADME; settings: human microsomes
CYP2C9 = test: Turnover by recombinantly expressed human cytochrome P450 isoforms; format: in vitro ADME; settings: 100 pmol/mL enzyme, 37 °C
Experimental: (§1) S2 Table. In vitro metabolism of TC299423, compared w ith varenicline.
(§2) Human Rat microsomes Turnover by human cytochrome P450 isoforms […]
(§3) The assay mixtures (final incubation volume of 125 μL) in 0.255 M phosphate buffer with 0.575% (w/v) KCl (pH 7.4) contained PiB (1.0 μM), […] a recombinantly expressed cytochrome P450 enzyme preparation (1A2, 2C9, 2C19, 2D6, 3A4, and FMO3) at 100 pmol/mL. After a 10 min preincubation at 37 °C, the reaction was initiated by addition of 2.0 mM NADPH and incubated for 60 min. The reactions were terminated by the addition of two volumes of DMSO. Samples were subsequently centrifuged at 4,000 rpm for 10 min. From the resulting supernatant, 10 μ L was analyzed by liquid chromatography/tandem mass spectrometry (LC-MS/MS). Control experiments were performed by substituting the active enzyme preparation by cell preparations containing no recombinant human CYP. a, Data for clearance are given as μL /min/mg protein. […]
(§4) c, Data for cytochrome P450 turnover and for human flavin- containing monooxygenase 3 (FMO3) are given as percent decline over 60 min.

CYP2D6 = test: as above; format: in vitro ADME; settings: 100 pmol/mL enzyme, 37 °C
Experimental: as §1, §2, §3, §4

CYP3A4 = test: as above; format: in vitro ADME; settings: 100 pmol/mL enzyme, 37 °C
Experimental: as §1, §2, §3, §4

CYP2C19 = test: as above; format: in vitro ADME; settings: 100 pmol/mL enzyme, 37 °C
Experimental: as §1, §2, §3, §4

CYP1A2 = test: as above; format: in vitro ADME; settings: 100 pmol/mL enzyme, 37 °C
Experimental: as §1, §2, §3, §4

α7 nAChRs = test system: α7 nAChRs; parameters: method as in Carroll et al., 2015; settings: ref Carroll et al., 2015; cited from earlier work
α3β4 nAChRs = test system: α3β4 nAChRs; parameters: method as in Carroll et al., 2015; settings: ref Carroll et al., 2015; cited from earlier work

α6β2* nAChRs, sequence (Q9R0W9 31-494): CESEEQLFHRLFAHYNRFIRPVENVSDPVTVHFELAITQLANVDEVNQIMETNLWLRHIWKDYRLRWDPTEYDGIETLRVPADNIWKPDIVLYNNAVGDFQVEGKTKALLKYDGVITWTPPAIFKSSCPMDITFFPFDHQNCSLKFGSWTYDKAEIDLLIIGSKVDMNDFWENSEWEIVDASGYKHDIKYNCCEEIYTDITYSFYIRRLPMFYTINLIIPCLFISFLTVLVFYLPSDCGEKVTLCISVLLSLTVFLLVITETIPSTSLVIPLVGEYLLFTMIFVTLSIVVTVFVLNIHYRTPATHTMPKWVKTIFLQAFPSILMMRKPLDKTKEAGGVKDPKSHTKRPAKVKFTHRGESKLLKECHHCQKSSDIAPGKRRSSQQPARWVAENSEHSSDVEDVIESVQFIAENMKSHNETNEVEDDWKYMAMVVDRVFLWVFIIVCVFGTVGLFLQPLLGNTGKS
α6β2* nAChRs, sequence (Q9ERK7 26-501): as the sequence (Q9ERK7 26-501) above
α6β2* nAChRs, sequence (Q8BMN3 31-464 partner): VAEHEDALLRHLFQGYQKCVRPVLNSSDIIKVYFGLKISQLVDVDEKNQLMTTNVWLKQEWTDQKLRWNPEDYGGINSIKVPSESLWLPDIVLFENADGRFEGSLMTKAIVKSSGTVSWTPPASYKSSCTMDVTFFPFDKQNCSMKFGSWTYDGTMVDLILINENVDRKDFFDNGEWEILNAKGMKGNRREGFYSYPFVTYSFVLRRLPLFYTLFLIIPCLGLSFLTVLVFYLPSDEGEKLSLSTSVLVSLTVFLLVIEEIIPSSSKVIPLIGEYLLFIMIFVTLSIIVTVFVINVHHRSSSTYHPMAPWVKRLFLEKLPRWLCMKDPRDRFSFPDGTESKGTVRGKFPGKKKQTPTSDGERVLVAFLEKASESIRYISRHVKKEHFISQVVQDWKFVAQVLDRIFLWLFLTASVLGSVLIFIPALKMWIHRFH

SMILES: CN1CCC[C@H]1c1cccnc1 [nicotine, (L)-nicotine hydrogen tartrate]
Marbles buried compared with saline (WT mice [1]): significantly fewer marbles
Marbles buried compared with varenicline (WT mice [1]; p < 0.001): fewer marbles
α-CtxMII-sensitive [3H]-dopamine release elicited (α6β2* nAChRs): 3.63 ± 0.81 units
Ambulatory activity in a novel environment (WT and α6L9′S mice; WT mice): Neither TC299423 nor nicotine affected WT ambulation
Ambulatory activity in a novel environment (WT and α6L9′S mice; α6L9′S mice): dramatically increased the ambulatory activity
Antinociceptive effect compared with varenicline (WT mice [2]): significantly greater than that of varenicline
α-CtxMII-resistant [3H]-dopamine release elicited (α4β2* nAChRs): 7.78 ± 0.83 units

SMILES: CNC1(C)C2CCC(C2)C1(C)C (centres unmarked) [mecamylamine]
Effect of pre-injection on nicotine- and TC299423-induced increases in ambulation (WT and α6L9′S mice; α6L9′S mice, 1 mg/kg ip pre-injection): blocked

half-life [3]: 10 min
microsomal CLint ([3]; read-out: Clearance): 233 µL/min/mg
half-life [4]: 43 min
microsomal CLint ([4]; read-out: Clearance): 39 µL/min/mg
Turnover by CYP2C9 (CYP2C9): 0 percent decline over 60 min
Turnover by CYP2D6 (CYP2D6): 39 percent decline over 60 min
Turnover by CYP3A4 (CYP3A4): 50 percent decline over 60 min
Turnover by CYP2C19 (CYP2C19): 0 percent decline over 60 min
Turnover by CYP1A2 (CYP1A2): 7 percent decline over 60 min
SMILES: c1cnc2cc3c(cc2n1)[C@@H]1CNC[C@H]3C1 [varenicline, Varenicline tartrate, reference compound]
Marbles buried compared with saline (WT mice [1]): significantly fewer marbles

SMILES: c1cc2c(cn1)[C@@H]1CC[C@H](CCC2)N1 [PHT, (+)-pyrido[3,4]homotropane]
EC50 (α7 nAChRs): 660 nM
EC50 (α3β4 nAChRs): 430 nM

Reference: publication PMC5626944 (Frontiers in Pharmacology, 2017)
